Our source for the GI50 and TGI values is PubChem BioAssay (NCI).

Holding throughout (experiment): NCI-60 cell line screen, 48 h
The subject of test [1] is SF-268 CNS.
For test [2], the system named is MDA-MB-231 breast.
Test [3] deals with HT29 colon.
Test [4] has as its system RPMI-8226 leukemia.
Test [5] deals with SNB-19 CNS.
In test [6] the test system is NCI-H23 lung.
The test system of test [7] is DU-145 prostate.
In test [8] the test system is M14 melanoma.
In test [9] the test system is 786-0 renal.
Test [10] relates to NCI-H226 lung.

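Test compounds were applied to cells in 96-well plates for 48 hours at 5 doses. The concentration for 50% growth inhibition is given as GI50. TGI denotes the concentration required for complete inhibition of growth.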

On to `COc1ccc(C2[C@@H](c3ccccc3)C(=O)N2c2cc(OC)c(OC)c(OC)c2)cc1F` (stereo not given in full), for which the GI50 in [1] is 0.0443 µM; in test [2], 0.0452 µM; in test [3], 0.026 µM; in [4], 0.0413 µM; in [5], 0.0499 µM; in test [6] it was 0.0489 µM. Moreover, the GI50 in test [7] is 0.0354 µM; in test [8], 0.0226 µM; in [9] it was 0.0314 µM; in test [10], 0.035 µM. Further, the TGI was above 100 µM in test [1]; above 100 µM in test [2]; 0.0781 µM in test [3]; 4 µM in test [4]; above 100 µM in test [5]; above 100 µM in test [6]. Besides, the TGI was above 100 µM in [7], 0.0672 µM in test [8], above 100 µM in test [9] and above 100 µM in [10].

For `CCN(Cc1ccc(F)cc1)c1cc(Cl)c(CO)c(Cl)c1`, the GI50 in [1] was 13.6 µM; in [2], 13 µM; in test [3], 16.2 µM; in [4], 10.7 µM; in test [5] it was 12.5 µM; in test [6] it was 13 µM. Moreover, the GI50 in test [7] was 16.8 µM; in test [8], 17 µM; in [9] it was 16 µM; in test [10], 3.69 µM. The TGI was 27.7 µM in test [1]; 26.7 µM in test [2]; 33.2 µM in test [3]; 42.9 µM in [4]; 26 µM in test [5]; 28.8 µM in test [6]. For the same molecule, the TGI in test [7] turned out to be 31.6 µM; in [8] it was 35 µM; in test [9], 32.5 µM; in test [10], 17.1 µM.

Turning to `CC(=O)CC(OC(C)=O)C1=CCC2C(CC1C)OC(=O)C2C` (stereo not given), the TGI in test [1], in [2], in test [3], in test [4], in test [5] and in test [6] was above 100 µM in each case. The TGI in test [7], in test [8], in [9] and in test [10] was above 100 µM each time.

With `C/C(=C\CBr)CCC(Br)C(C)(C)Br` (stereo not given), the TGI in test [1], in test [2], in [3], in test [4], in [5] and in test [6] was above 100 µM throughout. The TGI in test [7], in test [8], in [9] and in test [10] was above 100 µM in each case.

`CCCCCCCCCCn1cc[n+](C)c1`: the GI50 is 3.77 µM in test [1]; 2.73 µM in [2]; 2.23 µM in [3]; 0.109 µM in test [4]; 3.96 µM in test [5]; 0.648 µM in [6]. In addition, the GI50 in test [7] was 5.25 µM; in test [8], 1.9 µM; in test [9] it was 2.39 µM; in test [10] it was 2.43 µM. For the same molecule, the TGI in test [1] amounted to 18.3 µM; in [2] it was 16.9 µM; in test [3] it was 19.2 µM; in test [4], 0.448 µM; in test [5], 32.9 µM; in test [6], 28 µM. The TGI in test [7] came to 30.7 µM; in [8] it was 13.5 µM; in test [9], 18.1 µM; in test [10] it was 47 µM.

As to `O=C1CCCCN1c1ccccc1C#C/C=C\C#Cc1ccccc1C(F)(F)F`, the GI50 was 3.81 µM in test [1]; 1.16 µM in [2]; 0.97 µM in test [3]; 1.9 µM in test [4]; above 50 µM in test [5]; 1.26 µM in test [6]. Further, the GI50 was 1.68 µM in [7], 0.909 µM in test [8], 1.61 µM in test [9] and 1.28 µM in test [10]. The TGI in test [1] is above 50 µM; in test [2], 2.71 µM; in [3], 2.63 µM; in test [4], 6.71 µM; in [5], above 50 µM; in [6], 4 µM. Besides, the TGI in [7] came to 8.5 µM; in [8], 2.29 µM; in test [9], 7.26 µM; in test [10], 3.7 µM.

In the case of `CN(C)c1cc(NN=C(c2ccc(O)cc2)c2ccc(O)cc2)c([N+](=O)[O-])cc1[N+](=O)[O-]`, the GI50 in test [1] was 3.88 µM; in [2], 4.72 µM; in test [3], 10 µM; in test [4], 3.34 µM; in [5] it was 9.4 µM; in test [6], 6.46 µM. Besides, the GI50 in [7] was 10.2 µM; in test [8] it was 9.06 µM; in [9], 10.9 µM; in [10] it was 13.1 µM. The TGI in [1] is 15.9 µM; in test [2], 17.5 µM; in test [3], 23.7 µM; in test [4], 27.2 µM; in test [5] it was 22.2 µM; in test [6] it was 23.1 µM. Further, the TGI in test [7] stood at 23.6 µM; in test [8] it was 22.6 µM; in test [9], 25.1 µM; in [10] it was 32.3 µM.
